The values below come from US12662489B2 (Sitryx Therapeutics Limited, priority 2023, dated 2026).

Assay [1] addresses T1, MTHFD2 recombinant human enzyme (Homo sapiens, UniProt P13995).
T1 sequence (P13995 36-350): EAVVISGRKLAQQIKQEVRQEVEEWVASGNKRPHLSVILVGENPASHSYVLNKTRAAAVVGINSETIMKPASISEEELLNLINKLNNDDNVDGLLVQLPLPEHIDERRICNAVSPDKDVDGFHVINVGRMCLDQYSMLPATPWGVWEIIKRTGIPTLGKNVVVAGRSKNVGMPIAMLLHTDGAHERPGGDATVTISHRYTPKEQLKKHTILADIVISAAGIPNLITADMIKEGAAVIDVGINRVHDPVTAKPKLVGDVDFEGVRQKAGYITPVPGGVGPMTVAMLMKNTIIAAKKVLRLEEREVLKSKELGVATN
Kind of assay: MTHFD2 inhibition assay (NAD(P)H-Glo luminescence). To be noted: for MTHFD1/MTHFD2 IC50 ratio: selectivity of MTHFD2 inhibition over MTHFD1, band.

Assay [2] has as its target T2, MTHFD1 recombinant human enzyme (Homo sapiens, UniProt P11586).
T2 sequence (P11586 2-291 limits assumed): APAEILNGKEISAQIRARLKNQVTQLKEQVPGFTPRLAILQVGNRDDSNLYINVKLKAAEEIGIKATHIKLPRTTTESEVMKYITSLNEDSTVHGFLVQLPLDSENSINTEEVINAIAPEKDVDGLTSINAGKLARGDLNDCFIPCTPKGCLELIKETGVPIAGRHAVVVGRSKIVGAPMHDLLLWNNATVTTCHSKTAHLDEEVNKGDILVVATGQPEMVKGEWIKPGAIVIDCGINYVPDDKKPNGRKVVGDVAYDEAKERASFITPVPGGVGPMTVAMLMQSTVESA
Nature of the assay: MTHFD1 inhibition assay (NAD(P)H-Glo luminescence). To be noted: MTHFD1 IC50, recombinant human enzyme 200 nM, NADP, band.

In another assay the test system is human CD4+ T cells. Nature of the assay: Human CD4+ T-cell proliferation assay (CFSE, CD3/28 beads). To be noted: read-out: Proliferation IC50.

Molecules are shown by their SMILES.

For the compound `CCOc1cc(C(=O)N2CCc3c(c(=O)oc4c(C)c(N5CCN(C)[C@@H](COC)C5)cc(C)c34)C2)c(F)cc1C(=O)NS(=O)(=O)N1CCCC1` [Example 202, (R)-2-ethoxy-5-fluoro-4-(8-(3-(methoxymethyl)-4-methylpiperazin-1-yl)-7,10-dimethyl-5-oxo-1,3,4,5-tetrahydro-2H-chromeno[3,4-c]pyridine-3-carbonyl)-N-(pyrrolidin-1-ylsulfonyl)benzamide], the IC50 in assay [1] lay within 10 to 100 nM; in assay [2] it was 100 to 1000 nM; with human CD4+ T cells, 10 to 30 nM. Besides, the “MTHFD1/MTHFD2 IC50 ratio” value in assay [1] was “H (>9.0 to 30)”.

For the compound `COC[C@H]1CN(c2cc(C)c3c4c(c(=O)oc3c2C)CN(C(=O)c2cc(OC)c(C(=O)NS(=O)(=O)N3CC5CC5C3)cc2F)CC4)CCN1C` (stereo partly drawn) [Example 249, N-((3-azabicyclo[3.1.0]hexan-3-yl)sulfonyl)-5-fluoro-2-methoxy-4-(8-((R)-3-(methoxymethyl)-4-methylpiperazin-1-yl)-7,10-dimethyl-5-oxo-1,3,4,5-tetrahydro-2H-chromeno[3,4-c]pyridine-3-carbonyl)benzamide], the results for the IC50 (in assay [1]; in assay [2]; in the assay with human CD4+ T cells) were 1 to 10 nM, 100 to 1000 nM and 30 to 100 nM, respectively. Further, the “MTHFD1/MTHFD2 IC50 ratio” value in assay [1] was “J (>30)”.

`COC[C@H]1CN(c2cc(C)c3c4c(c(=O)oc3c2C)CN(C(=O)c2cc(OC)c(C(=O)NS(=O)(=O)N3CCCC3)cc2Cl)CC4)CCN1C` [Example 329, (R)-5-chloro-2-methoxy-4-(8-(3-(methoxymethyl)-4-methylpiperazin-1-yl)-7,10-dimethyl-5-oxo-1,3,4,5-tetrahydro-2H-chromeno[3,4-c]pyridine-3-carbonyl)-N-(pyrrolidin-1-ylsulfonyl)benzamide]: the IC50 in assay [1] fell in the range of 1 to 10 nM; in assay [2], 1000 to 5000 nM; with human CD4+ T cells, 100 to 1000 nM. Further, the “MTHFD1/MTHFD2 IC50 ratio” value in assay [1] is given as “J (>30)”.

For `COC[C@H]1CN(c2cc(Cl)c3c4c(c(=O)oc3c2C)CN(C(=O)c2cc(OC)c(C(=O)NS(=O)(=O)N3C5CCC3CC5)cc2F)CC4)CCN1C` [Example 324, (R)-N-((7-azabicyclo[2.2.1]heptan-7-yl)sulfonyl)-4-(10-chloro-8-(3-(methoxymethyl)-4-methylpiperazin-1-yl)-7-methyl-5-oxo-1,3,4,5-tetrahydro-2H-chromeno[3,4-c]pyridine-3-carbonyl)-5-fluoro-2-methoxybenzamide], the results for the IC50 (in assay [1]; in assay [2]; in the assay on human CD4+ T cells) were 10 to 100 nM, 100 to 1000 nM and 100 to 1000 nM, respectively. In assay [1], the “MTHFD1/MTHFD2 IC50 ratio” value was “J (>30)”.

Take `COC[C@H]1CN(c2cc(Cl)c3c4c(c(=O)oc3c2C)CN(C(=O)c2cc(OC)c(C(=O)NS(=O)(=O)N3CCCC3)cc2F)CC4)CCN1C` [Example 262, (R)-4-(10-chloro-8-(3-(methoxymethyl)-4-methylpiperazin-1-yl)-7-methyl-5-oxo-1,3,4,5-tetrahydro-2H-chromeno[3,4-c]pyridine-3-carbonyl)-5-fluoro-2-methoxy-N-(pyrrolidin-1-ylsulfonyl)benzamide]: the IC50 lay within 1 to 10 nM in assay [1], 1000 to 5000 nM in assay [2] and 30 to 100 nM in the assay on human CD4+ T cells. The “MTHFD1/MTHFD2 IC50 ratio” value in assay [1] was “J (>30)”.

With `COC[C@H]1CN(c2cc(C)c3c4c(c(=O)oc3c2C)CN(C(=O)c2cc(N(C)C)c(C(=O)NS(=O)(=O)N3C[C@@H]5C[C@H]3CO5)cc2F)CC4)CCN1C` [Example 313, N-(((1S,4S)-2-oxa-5-azabicyclo[2.2.1]heptan-5-yl)sulfonyl)-2-(dimethylamino)-5-fluoro-4-(8-((R)-3-(methoxymethyl)-4-methylpiperazin-1-yl)-7,10-dimethyl-5-oxo-1,3,4,5-tetrahydro-2H-chromeno[3,4-c]pyridine-3-carbonyl)benzamide], the values for the IC50 (in assay [1]; in assay [2]; in the assay with human CD4+ T cells) were 1 to 10 nM, 100 to 1000 nM and 30 to 100 nM, respectively. Moreover, the “MTHFD1/MTHFD2 IC50 ratio” value in assay [1] is “J (>30)”.
